The values that follow are results of earlier work, collected in US9400249B2, “Detection of biopolymer interactions, cancer cells, and pathogens using split-supercharged GFP” (Colorado State University Research Foundation, priority 2012, dated 2016).

Data set [1] addresses Hepatocellular carcinoma. The conditions noted are these: Targeted cell type: Hepatocellular carcinoma; read-out: Approximate affinity (Kd in nM).
Data set [2] concerns the target Osteosarcoma. Particulars: Targeted cell type: Osteosarcoma; read-out: Approximate affinity (Kd in nM).
The subject of data set [3] is Prostate cancer.
Data set [4] concerns PC-3 prostate cancer cells. The conditions noted are these: previously reported.
In data set [5] the target is Cholangiocarcinoma. The conditions noted are these: Targeted cell type: Cholangiocarcinoma; read-out: Approximate affinity (Kd in nM).
Data set [6] concerns the target Head and neck cancer. The conditions noted are these: Targeted cell type: Head and neck cancer; read-out: Approximate affinity (Kd in nM).
Data set [7] deals with Breast cancer, Neuroblastoma. Particulars: Targeted cell type: Breast cancer, read-out: Approximate affinity (Kd in nM).

The Kd is the constant that tells how readily two partners part at equilibrium. As for “AGKGTPSLETTP [cell targeting peptide, targeted cell type hepatocellular carcinoma]”, in data set [1], the equilibrium dissociation constant (Kd) is around 50 nM.
Take “ASGALSPSRLDT [cell targeting peptide, targeted cell type osteosarcoma]”: in data set [2], the Kd was around 2000 nM.
Turning to FRPNRAQDYNTN, the “binding to PC-3 prostate cancer cells” value in data set [3] (PC-3 prostate cancer cells, previously reported) is listed as “potently binds”. The dissociation constant (Kd) in data set [3] (Targeted cell type: Prostate cancer, read-out: Approximate affinity (Kd in nM)) was around 180 nM. For the same sequence, the “penetration of PC-3 prostate cancer cells” value in data set [4] is given as “does not appreciably penetrate”.
For “TPVLETPKLLLW [cell targeting peptide, targeted cell type cholangiocarcinoma]”, the Kd in data set [5] was around 500 nM.
On to “TSPLNIHNGQKL [cell targeting peptide, targeted cell type head and neck cancer]”, for which the dissociation constant (Kd) in data set [6] was around 1000 nM.
Consider “VPWMEPAYQRFL [cell targeting peptide, targeted cell type breast cancer, neuroblastoma]”, for which, in data set [7], the dissociation constant (Kd) is 50000 to 80000 nM.
